Measured values: patent publication US20100010039A1, “POLYMORPHIC CRYSTAL FORM OF A INDAN-2-YLAMINO-HYDROXYETHYL-QUINOLINONE MALEATE DERIVATIVE AS BETA-ADRENOCEPTOR AGONIST” (priority 2006, published 2010)
Counter-ions that a name gives are not always drawn. Marks after values point to notes of the source that are not given here.

What was measured:
Assay type in all cases: physicochemical
[1] = Stress testing: 1 month, 60° C. open container, relative humidity <30% (physico-chemical stability comparison); details: for Assay (HPLC), 1 month / Related substances (HPLC), 1 month / TG (moisture content), 1 month / XRPD (identity of the material), 1 month: after 1 month, 60° C. open, R.H. <30%; for Assay (HPLC), 1 month / Related substances (HPLC), 1 month / TG (moisture content), 1 month / XRPD (identity of the material), 1 month / Related substances (HPLC), Initial / Assay (HPLC), Initial / TG (moisture content), Initial / XRPD (identity of the material), Initial / Proneness to degradation on storage (in words): maleate; for Related substances (HPLC), Initial / Assay (HPLC), Initial / TG (moisture content), Initial / XRPD (identity of the material), Initial: before storage; for Related substances (HPLC), Initial: Qalpha value from release analysis, Amorphous value from recontrol analysis; for Assay (HPLC), Initial / TG (moisture content), Initial / XRPD (identity of the material), Initial: release / recontrol analysis; for Proneness to degradation on storage (in words): summary of both stress tests (Tables 5 and 6), 1 month, 60° C.
Protocol: (§1) Samples of crystal form Qalpha and amorphous (R)-5-[2-(5,6-diethyl-indan-2-ylamino)-1-hydroxyethyl]-8-hydroxy-1H-quinolin-2-one maleate are stress tested before and after storage for 1 month to provide for physico-chemical stability comparison.
(§2) In a first test the samples are stored at 60° C. in an open container with a relative humidity <30%. In a second test the samples are stored at 60° C. in an open container with a relative humidity of about 75%. The results are shown in Tables 5 and 6 below respectively.
(§3) The tests determine (a) purity and (b) assay as determined by high performance liquid chromatography (HPLC) using HP1100 from Agillent with a YMC-packs ODS-AQ 3 μm column; (c) identity of the material as determined by the X-ray diffraction pattern measured using a SCINTAG™ X-ray diffractometer with a CuK alpha radiation source (45 kV, 40 mA); and (d) moisture content determined using a TGA851e Mettler Toledo STAR System thermogravimetry analysis balance with nitrogen flow 50 ml/min.

[2] = Stress testing: 1 month, 60° C./75% RH open container (physico-chemical stability comparison); details: for XRPD (identity of the material), 1 month / Assay (HPLC), 1 month / Related substances (HPLC), 1 month / TG (moisture content), 1 month: after 1 month, 60° C./75% RH open; for Assay (HPLC), 1 month / Related substances (HPLC), 1 month / TG (moisture content), 1 month / Assay (HPLC), Initial / Related substances (HPLC), Initial / TG (moisture content), Initial / XRPD (identity of the material), Initial: maleate; for Assay (HPLC), Initial / Related substances (HPLC), Initial / TG (moisture content), Initial / XRPD (identity of the material), Initial: before storage, release / recontrol analysis
Protocol: as §1, §2, §3

[3] = Solubility behaviour / kinetic of dissolution in comparison to the amorphous part

Row | Compound | Assay (HPLC), 1 month [1] | Related substances (HPLC), 1 month [1] | TG (moisture content), 1 month [1] | XRPD (identity of the material), 1 month [1] | Related substances (HPLC), Initial [1] | Assay (HPLC), Initial [1] | TG (moisture content), Initial [1] | XRPD (identity of the material), Initial [1] | XRPD (identity of the material), 1 month [2] | Assay (HPLC), 1 month [2] | Related substances (HPLC), 1 month [2] | TG (moisture content), 1 month [2] | Assay (HPLC), Initial [2] | Related substances (HPLC), Initial [2] | TG (moisture content), Initial [2] | XRPD (identity of the material), Initial [2] | also measured
1 | CCc1cc2c(cc1CC)CC(NC[C@H](O)c1ccc(O)c3[nH]c(=O)ccc13)C2 [Amorphous, (R)-5-[2-(5,6-diethyl-indan-2-ylamino)-1-hydroxyethyl]-8-hydroxy-1H-quinolin-2-one maleate, reference compound] | 91.5% | 4.3% | 0.74% | Amorphous | 0.22%# | 99.7%# | 1.8%# | Amorphous# | Qalpha | 98.9% | 0.73% | 0.23% | 99.7%# | 0.22%# | 1.8%# | Amorphous# | Proneness to degradation on storage (in words) ([1]; listed as amorphous material): more prone to degradation than Qalpha; Conversion of solid form on storage (in words) ([2]; stored at 60° C./75% R.H.): converts to crystal form Qalpha
2 | CCc1cc2c(cc1CC)CC(NC[C@H](O)c1ccc(O)c3[nH]c(=O)ccc13)C2 [Qalpha, (R)-5-[2-(5,6-diethyl-indan-2-ylamino)-1-hydroxyethyl]-8-hydroxy-1H-quinolin-2-one maleate] | 98.8% | 0.25% | <0.05% | Qalpha | 0.23%* | 100.2%* | 0.07%* | Qalpha* | Qalpha | 99.5% | 0.26% | <0.05% | 100.2%* | 0.23%* | 0.07%* | Qalpha* | Changes after storage (in words) ([1]; storage for 1 month, both stress tests): No significant changes; Proneness to degradation on storage (in words) ([1]; listed as crystal form Qalpha): less prone to degradation or conversion than the amorphous form on storage; Solubility behaviour: kinetic of dissolution (in words) [3]: lower kinetic of dissolution
